Assay results from patent US20240148835A1, “TREATING DISORDERS ASSOCIATED WITH DYRK1A DYSFUNCTION” (UNIVERSITY OF FLORIDA RESEARCH FOUNDATION, INCORPORATED, priority 2021, published 2024).
Entries after “also recorded” stand apart in the source; their conditions may differ.

Legend:
[1] = system: cHet primary cortical neurons; assay: In vitro primary cortical neuron culture, Sholl analysis of Ctip2+ neurons; format: cell-based, mouse
Experimental: Lastly, to test whether (1-3)IGF-1 treatment rescues the decreased complexity of Dyrk1a cHet neurons, we cultured control and cHet primary cortical neurons. Neurons analyzed were restricted to Ctip2+ neurons, as we are focused on the impact of Dyrk1a mutations on the growth and connectivity of layer V pyramidal neurons.
In vitro primary neuronal culture: Brains from P0 mice were removed, and whole cortices were dissected. Individual cortices were placed into 1 mL chilled dissecting media (1× HBSS (14175-095), 30 mM glucose, 60 μM HEPES). After aspiration of the dissecting media, the tissue was enzymatically dissociated with papain (LS003126) that was previously diluted 1:80 in pre-warmed plating media [Neurobasal A (10888-022), 5% FBS (16000044), and 1% penicillin/streptomycin (p/s)/0.25% glutamine (10378-016)] and incubated at 37° C. for 15 min. The papain was removed, and the tissue was pipetted into a single-cell suspension in plating media. The suspensions were filtered using 40 μm nylon cell strainers (Fisher Scientific, #352340), and the filtered suspension was centrifuged at 280 RCF for 5 min. […] Samples of the suspensions were diluted 1:4 in trypan blue, and cells were counted with a manual hemocytometer for determination of sample concentration. […]
All coverslip images were taken at 40× magnification on an Olympus VS-120 epifluorescence microscope and analyzed with ImageJ (NIH). […]

[2] = system: protein synthesis in the mPFC of cHets; assay: SUnSET puromycin incorporation assay (protein synthesis) in mPFC after (1-3)IGF-1 treatment; format: in vivo, mouse
Experimental: Protein synthesis is a critical output of mTOR signaling, particularly downstream of P70 Ribosomal S6 Kinase (S6K1).
(1-3)IGF-1 was acquired from VWR/Bachem (catalog #H-2468.1000) and dissolved in saline with 0.01% BSA fresh every day. Intraperitoneal injections of 10 mg kg′ (1-3)IGF-1 or vehicle were delivered daily at 8 a.m. starting on P14 and ending on P85. […] The S6K1 inhibitor PF-4708671 was acquired from Medkoo Biosciences (#406432) dissolved in 10% DMSO, 10% tween 80 and 80% water. (1-3)IGF-1 (10 mg kg′) and PF-4708671 (50 mg kg^−1) or vehicle were injected subcutaneously into pups from P0 to P7. Rapamycin was acquired from LC laboratories (R-5000) and dissolved in 4% ethanol, 5% tween-80, and 5% PEG400 in PBS. (1-3)IGF-1 (10 mg kg′) and Rapamycin (1 mg kg′) or vehicle were injected subcutaneously into pups from P0 to P7. SB216763 was acquired from TOCRIS (#1616) and dissolved in 5% DMSO and 0.9% saline in dH20. SB216763 (0.5 mg kg′) was injected subcutaneously into pups from P0 to P7.
300 μm coronal prefrontal cortical slices were obtained from postnatal day 7 (P7) and adult mice. Slices were allowed to recover in artificial cerebrospinal fluid (in mM: 124 NaCl, 2.8 KCl, 2 CaCl2, 1.25 NaH2P04, 1.25 MgSO4, 26 NaHCO3, 10 Dextrose) for 2 h at 32° C. Puromycin (5 μg ml-1) was applied to slices for 40 min at 32° C. to label newly synthesized proteins. Slices were then snap frozen on dry ice and stored at −80° C. until used. Protein (50 μg) was loaded on 4-12% gradient gels, transferred onto polyvinylidene difluoride membranes, and probed with anti-puromycin antibody (1:5,000, Millipore, MABE343). Anti-mouse HRP-tagged secondary antibody was used and chemiluminiscence was developed using standard ECL reagents. Quantification was done by measuring intensity of each lane from 14 to 191 kDa, subtracting it from the intensity of the unlabeled lane and normalized to loading control.

For “(1-3)IGF-1: a tripeptide cleaved from the N-terminus of IGF-1; acquired from VWR/Bachem, CAS No. 32302-76-4 (GPE; Insulin-like growth factor 1; UniProt P05019 49-51, looked up, fragment)”, the “neuronal complexity (Sholl arborization) of cHet neurons” value ([1]; 100 ng/mL daily from DIV13 to DIV15, Ctip2+ neurons, DIV15) was “rescued; also recorded: rescues decreased arborization”, the “neuronal complexity of control neurons” value ([1]; 100 ng/mL daily from DIV13 to DIV15, DIV15) was “did not affect control neurons” and the “puromycin incorporation (protein synthesis) in adult cHets” value ([2]; adult, chronic treatment) was “significantly increased; also recorded: restores decreased protein synthesis”. For the same substance, the “puromycin incorporation in adult controls” value ([2]; adult, relative to vehicle-treated controls) was “significant decrease in puromycin incorporation”, the “puromycin incorporation (protein synthesis) in neonatal cHets” value ([2]; daily treatment from P0 to P7) was “increased puromycin abundance; also recorded: restores decreased protein synthesis” and the “puromycin incorporation in neonatal controls” value ([2]; daily treatment from P0 to P7) was “without impacting controls”.
